Laboratory results published in PubChem BioAssay AID1919003 (Molecular Pharmacology Branch, DTP, NCI, 2023).
pIC50: −log10 of the molar value.

Tested on: 786-0 complex spheroids with HUVEC/MSC, growth % test/control
Test: Anticancer human tumor 786-0 cell line growth inhibition [AhR];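 further: compound exposure lasted seven days before the read-out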
Conditions: for pIC50: curve of first compound; for viability, T/C: stronger effect = lower value
Summary of the method: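 Spheroids combined tumor cells with HUVEC endothelial cells and human MSCs as stroma. AhR antagonists were paired with standard or investigational drugs, each dosed in half-log steps down from near clinical Cmax, or from 10 microM where Cmax was unknown.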

[1] = second compound 0.1 µM, first compound 0.00949 µM
[2] = second compound 0.1 µM, first compound 0.03 µM
[3] = second compound 0.1 µM, first compound 0.0949 µM
[4] = second compound 0.1 µM, first compound 0.3 µM
[5] = second compound 0.1 µM, first compound 0.949 µM
[6] = second compound 0.1 µM, first compound 3 µM
[7] = second compound 0.316 µM, first compound 0.00949 µM
[8] = second compound 0.316 µM, first compound 0.03 µM
[9] = second compound 0.316 µM, first compound 0.0949 µM
[10] = second compound 0.316 µM, first compound 0.3 µM
[11] = second compound 0.316 µM, first compound 0.949 µM
[12] = second compound 0.316 µM, first compound 3 µM
[13] = second compound 1 µM, first compound 0.00949 µM
[14] = second compound 1 µM, first compound 0.03 µM
[15] = second compound 1 µM, first compound 0.0949 µM
[16] = second compound 1 µM, first compound 0.3 µM
[17] = second compound 1 µM, first compound 0.949 µM
[18] = second compound 1 µM, first compound 3 µM
[19] = second compound 3.16 µM, first compound 0.00949 µM
[20] = second compound 3.16 µM, first compound 0.03 µM
[21] = second compound 3.16 µM, first compound 0.0949 µM
[22] = second compound 3.16 µM, first compound 0.3 µM
[23] = second compound 3.16 µM, first compound 0.949 µM
[24] = second compound 3.16 µM, first compound 3 µM
[25] = second compound 10 µM, first compound 0.00949 µM
[26] = second compound 10 µM, first compound 0.03 µM
[27] = second compound 10 µM, first compound 0.0949 µM
[28] = second compound 10 µM, first compound 0.3 µM
[29] = second compound 10 µM, first compound 0.949 µM
[30] = second compound 10 µM, first compound 3 µM

SMILES	pIC50 (second compound 0.1 µM)	pIC50 (second compound 0.316 µM)	pIC50 (second compound 1 µM)	pIC50 (second compound 3.16 µM)	pIC50 (second compound 10 µM)	viability, T/C [1]	viability, T/C [2]	viability, T/C [3]	viability, T/C [4]	viability, T/C [7]	viability, T/C [8]	viability, T/C [9]	viability, T/C [10]	viability, T/C [13]	viability, T/C [14]	viability, T/C [15]	viability, T/C [16]	viability, T/C [19]	viability, T/C [20]	viability, T/C [21]	also measured
CCN(c1cc(-c2ccc(CN3CCOCC3)cc2)cc(C(=O)NCc2c(C)cc(C)[nH]c2=O)c1C)C1CCOCC1 + CC(CO)NC(=O)c1cc(-c2ccc(Cl)cc2)nn(-c2cnn(C)c2)c1=O	< 5.52	< 5.52	< 5.52	< 5.52	< 5.52	90.2%	101%	93.5%	106%	108%	107%	103%	101%	98.8%	102%	101%	109%	101%	97.5%	106%	viability, T/C [5]: 98.7%; viability, T/C [6]: 102%; viability, T/C [11]: 103%; viability, T/C [12]: 98.4%; viability, T/C [17]: 110%; viability, T/C [18]: 96.6%; viability, T/C [22]: 102%; viability, T/C [23]: 112%; viability, T/C [24]: 98.5%; viability, T/C [25]: 105%; viability, T/C [26]: 110%; viability, T/C [27]: 102%; viability, T/C [28]: 116%; viability, T/C [29]: 116%; viability, T/C [30]: 106%
Nc1ncn(C2CC(O)C(CO)S2)c(=O)n1 (stereo not given) + CC(CO)NC(=O)c1cc(-c2ccc(Cl)cc2)nn(-c2cnn(C)c2)c1=O	< 6.52	< 6.52	< 6.52	< 6.52	< 6.52	99.8%	102%	92.3%	67.2%	109%	107%	94.8%	64.7%	111%	102%	97.9%	63.1%	115%	108%	92.6%	viability, T/C (second compound 0.1 µM, first compound 0.000949 µM): 102%; viability, T/C (second compound 0.1 µM, first compound 0.003 µM): 97.3%; viability, T/C (second compound 0.316 µM, first compound 0.000949 µM): 101%; viability, T/C (second compound 0.316 µM, first compound 0.003 µM): 109%; viability, T/C (second compound 1 µM, first compound 0.000949 µM): 104%; viability, T/C (second compound 1 µM, first compound 0.003 µM): 115%; viability, T/C (second compound 3.16 µM, first compound 0.000949 µM): 122%; viability, T/C (second compound 3.16 µM, first compound 0.003 µM): 108%; viability, T/C [22]: 66.4%; viability, T/C (second compound 10 µM, first compound 0.000949 µM): 118%; viability, T/C (second compound 10 µM, first compound 0.003 µM): 116%; viability, T/C [25]: 117%; viability, T/C [26]: 123%; viability, T/C [27]: 119%; viability, T/C [28]: 68.1%
O=C(C=Cn1cnc(-c2cc(C(F)(F)F)cc(C(F)(F)F)c2)n1)NNc1cnccn1 + CC(CO)NC(=O)c1cc(-c2ccc(Cl)cc2)nn(-c2cnn(C)c2)c1=O	6.56	6.60	6.62	6.61	6.56	108%	110%	107%	45.5%	111%	113%	112%	38.7%	105%	115%	113%	36%	110%	116%	106%	viability, T/C [5]: 25.7%; viability, T/C [6]: 10.5%; viability, T/C [11]: 28.2%; viability, T/C [12]: 11%; viability, T/C [17]: 24.5%; viability, T/C [18]: 9.93%; viability, T/C [22]: 37.9%; viability, T/C [23]: 22.9%; viability, T/C [24]: 9.29%; viability, T/C [25]: 119%; viability, T/C [26]: 122%; viability, T/C [27]: 107%; viability, T/C [28]: 44.8%; viability, T/C [29]: 23.6%; viability, T/C [30]: 10.6%
